# Patent US20090298891A1, “Methods of Treating or Preventing Cancer Using Pyridine Carboxaldehyde Pyridine Thiosemicarbazone Radiosensitizing Agents” (GOVERNMENT OF THE US, AS REPRESENTED BY THE SECRETADY OF …, priority 2005, published 2009)
# Columns and labels:
# [1] = tested on: PSN1 (pancreatic carcinoma) cell line; experiment: Clonogenic assay, PSN1; type: cell-based, human
# Method: (§1) Cell lines and treatment. Three human tumor cell lines were evaluated: a glioma (U251), a pancreatic carcinoma (PSN1) and a prostate carcinoma (DU145), each was obtained from the Developmental Therapeutics Program, DCTD, NCI. The cell lines were grown in RPMI 1640 (Life Technologies, Rockville, Md.) containing […] (5 mM) and 5% FBS and maintained at 37° C. in an atmosphere of 5% CO2 and 95% room air. Triapine (3-amino-2-carboxaldehyde-pyridine thiosemicarbazone), provided by Vion Pharmaceuticals of New Haven, Conn., was dissolved in dimethylsulfoxide to a stock concentration of 10 mM and stored at −20° C. Cultures were irradiated using a Pantak (Solon, Ohio) X-ray source at a dose rate of 1.55 Gy/minute.
# (§2) Clonogenic assay. Cell cultures were trypsinized to generate a single cell suspension and a specified number of cells were seeded into each well of 6-well tissue culture plates. In the first experiment, drug or vehicle control was, added at specified concentrations, and the plates were irradiated 16 hours later. Immediately after irradiation, the growth media was aspirated, and fresh media was added. In the second experiment, cells were seeded, and irradiated 6 hours after seeding. Immediately after irradiation, the cells were treated with the specified concentration of drug. After 16 hours of exposure, drug was aspirated, and replaced with fresh media. Ten to twelve days after seeding, colonies were stained with crystal violet, and the number of colonies containing at least 50 cells was determined and the surviving fractions were calculated. Survival curves were generated after normalizing for the cytotoxicity generated by drug alone. Data presented are the mean±SEM from at least three independent experiments. Radiation dose enhancement factors (DEFs) represent the ratio of radiation dose required to achieve 10% survival in the control cells and the drug-treated cells.
# [2] = tested on: DU145 (prostate carcinoma) cell line; experiment: Clonogenic assay, DU145; type: cell-based, human
# Method: as §1, §2
# [3] = tested on: U251 (human glioma) cell line; experiment: Clonogenic assay, U251; type: cell-based
# Method: as §1, §2
# [4] = tested on: DNA synthesis activity in U251 cells; experiment: DNA synthesis assay (BrdU incorporation); type: cell-based, human; conditions: after 16 hours of Triapine exposure
# Method: DNA Synthesis Assay. DNA synthesis was quantified as an indirect measure of ribonucleotide reductase activity. A 5-bromo-2′-deoxyuridine (BrdU) incorporation assay kit (#1669915) produced by Roche Applied Science (Mannheim, Germany) was used. Cells were seeded in wells of a black wall 96-well plate and allowed to incubate for 24 hours. Drug was added, and after 16 hours of exposure, 10 μM BrdU pulses were added hourly for 2 hours, according to manufacturer's instructions. After fixation, an anti-BrdU peroxidase antibody conjugate was applied for 90 minutes at room temperature. The conjugate was then rinsed three times, and luminol was added. Chemiluminescence was detected with a Wallac 1420 multilabel counter (Perkin Elmer Life Sciences, Turku, Finland), and data was exported for off-line analysis. Triplicate samples were run for three independent experiments; data is presented as the mean of three experiments±SEM.
# U251 cells = experiment: Cell cycle phase analysis (flow cytometry); type: cell-based, human; conditions: 16 hours of Triapine exposure (5 μM)
# Method: Cell Cycle Phase Analysis. Cell cycle phase distribution was analyzed using flow cytometry. Cells were seeded in T75 flasks at subconfluent density and exposed to Triapine, or vehicle for 16 hours, at which time cells were fixated and stained with propidium iodide for flow cytometry analysis at the Clinical Services Program at the National Cancer Institute-Frederick. A two-tailed, paired t-test was performed on the data from the replicated analysis.
# PSN1 tumors = experiment: In vivo tumor growth delay assay, PSN1 xenografts; parameters: species or system mice
# Method: (§3) In Vivo Tumor Growth Delay Assay. Male 6 week old athymic nude mice (NCr nu/nu) were used in these studies. Mice, housed in filter-topped cages, were provided autoclaved feed and hyperchlorinated water ad libitum. U251 or PSN1 tumor cells were implanted subcutaneously in the hind leg. Irradiation was performed using a Pantak (Solon, Ohio) irradiator with animals restrained in a custom lead jig, which allowed for the localized irradiation of tumors at the base of the tail. When tumors reached 177 mm^3 (7×7 mm) Triapine (30-60 mg/kg) was delivered by intraperitoneal injection and 6 h later tumors were irradiated with a single dose of 4 or 5 Gy. To obtain growth curves, perpendicular diameter measurements of each tumor were collected every 3 days with calipers, and the volumes were calculated using the formula (L×W×W)/2. Tumors were followed until the group's tumors were greater than 1500 mm^3. Specific tumor growth delay was calculated as the number of days for the treated tumors to grow to 1400 mm^3 minus the number of days for the control group to reach the same size. Each experimental group contained 10 mice and the untreated group contained 15 mice. All animal studies were conducted in accordance with the principles and procedures outlined in the U.S.P.H.S. Guide for the Care and Use of Laboratory Animals in an AAALAC-approved facility under an approved animal protocol.
# In vivo activity of Triapine in conjunction with radiation was determined through growth delays in mice with subcutaneous human tumor xenografts. Based on the above described in vitro results, xenografts of PSN1 and U251 were evaluated in vivo. Triapine (40 mg/kg) was given 6 hours prior to a single radiation dose (4 or 5 Gy). After 3 volumetric doublings of the PSN1 tumors, Triapine alone yielded a 1.6 day growth delay, and radiation caused a 9.8 day growth delay. […] See, FIG. 8 (U251) and FIG. 9 (PSN1) for a graph of tumor growth delay data.
# U251 tumors = experiment: In vivo tumor growth delay assay, U251 xenografts; parameters: species or system mice; conditions: combination of Triapine and radiation
# Method: as §3, with “Each experimental group contained 10 mice and the untreated group contained 15 mice. All animal studies were conducted in accordance with the principles and procedures outlined in the U.S.P.H.S. Guide for the Care and Use of Laboratory Animals in an AAALAC-approved facility under an approved animal protocol.” left out
# In vivo activity of Triapine in conjunction with radiation was determined through growth delays in mice with subcutaneous human tumor xenografts. Based on the above described in vitro results, xenografts of PSN1 and U251 were evaluated in vivo. […]
structure (smiles),measurement,setting,value
"NC(=S)N/N=C/c1ncccc1N [Triapine, 3-amino-2-carboxaldehyde-pyridine thiosemicarbazone]",Survival following 16 hours of Triapine exposure,"[1]; PSN1, 3 μM, drug alone",33%
same,"radiosensitization / DEF, Triapine after irradiation","[1]; PSN1, Triapine for 16 hours after irradiation",DEFs similar to those obtained when cells were exposed prior to irradiation
same,dose enhancement factor (DEF),"[1]; PSN1, Triapine given prior to radiation, ratio of radiation dose for 10% survival",1.64
same,Survival following 16 hours of Triapine exposure,"[2]; DU145, 5 μM, drug alone",68%
same,"radiosensitization / DEF, Triapine after irradiation","[2]; DU145, Triapine for 16 hours after irradiation",DEFs similar to those obtained when cells were exposed prior to irradiation
same,dose enhancement factor (DEF),"[2]; DU145, Triapine given prior to radiation, ratio of radiation dose for 10% survival",2.05
same,Survival following 16 hours of Triapine exposure,"[3]; U251, 5 μM, drug alone",53%
same,"radiosensitization / DEF, Triapine after irradiation","[3]; U251, Triapine for 16 hours after irradiation",DEFs similar to those obtained when cells were exposed prior to irradiation
same,dose enhancement factor (DEF),"[3]; U251, Triapine given prior to radiation, ratio of radiation dose for 10% survival",1.50
same,DNA synthesis,[4],less than 5 % of control
same,time for DNA synthesis to return to control levels,[4],7 h
same,percentage of cells in G1,U251 cells,increased
same,percentage of cells in G2/M,U251 cells,decreased
same,growth delay,"PSN1 tumors; Triapine alone, 40 mg/kg intraperitoneal, after 3 volumetric doublings of PSN1 tumors",1.6 days
same,growth delay,"PSN1 tumors; combination of Triapine (40 mg/kg, 6 hours prior) and single radiation dose (4 or 5 Gy), PSN1 tumors",20.9 days
same,DEF (in vivo),"PSN1 tumors; combination of Triapine and radiation, PSN1 tumors",2.0
same,growth delay / DEF effect of combination,U251 tumors,a similar effect was observed
